Source: patent publication US5525627A, “Esters of acyl carnitines with long-chain aliphatic alcohols and pharmaceutical compositions containing same having antimycotic activity” (Sigma-Tau Industrie Farmaceutiche Riunite S.p.A., priority 1992, dated 1996)

Columns and labels:
Candida albicans (562) = experiment: MIC for yeast and yeast-like strains; type: cell-based; details: 48 hours, 35° C., read-out: Minimal Inhibitory Concentration (MIC)
Method: (§1) The following strains were used (the number of strains is in brackets): Candida (13); Criptococcus (2); Saccharormyces (1); Torulopsis (1).
(§2) Yeast Nitrogen Base supplemented with 0.15% asparagine and 1.0% glucose (as carbon source) was the medium utilized in the assays.
(§3) This medium was buffered with 0.165 M 2-(N-morpholino) propane sulfonic acid (MOPS), a non-chelating buffer. […]
(§4) The inoculum was prepared from an overnight broth culture (a 48-hour culture only for Cryptococcus) in Sabouraud broth and appropriately diluted to yield a final suspension containing approximately 5.0×10^6 Colony Forming Units per ml (CFU/ml), when compared to the Mc Farland's standard control (BRAY W. E., Clinical Laboratory Methods, 5th Ed. C. V. MOSBY, St. Louis, Mo, 1957).
(§5) After further diluting (1:50), a […] volume of such fungal suspensions and an equal volume of the substance solutions were distributed into each well of a microtiter plate (96 wells, round bottom). Such a procedure eventually allowed for an "in vitro" antimycotic activity assay utilizing final fungal inocula of approximately 5.0×10^4 CFU/ml.

Candida albicans (A 54) = experiment: MIC for yeast and yeast-like strains; type: cell-based; details: 48 hours, 35° C., read-out: Minimal Inhibitory Concentration (MIC)
Method: as §1, §2, §3, §4, §5

Candida albicans (Ca 2) = experiment: MIC for yeast and yeast-like strains; type: cell-based; details: 48 hours, 35° C., read-out: Minimal Inhibitory Concentration (MIC)
Method: as §1, §2, §3, §4, §5

Candida krusei (ISS 1) = experiment: MIC for yeast and yeast-like strains; type: cell-based; details: Pichia kudriavzevii; 48 hours, 35° C.; read-out: Minimal Inhibitory Concentration (MIC)
Method: as §1, §2, §3, §4, §5

[1] = tested on: Candida tropicalis (5705); experiment: MIC for yeast and yeast-like strains; type: cell-based; details: 48 hours, 35° C., read-out: Minimal Inhibitory Concentration (MIC)
Method: as §1, §2, §3, §4, §5

[2] = tested on: Cryptococcus neoformans (4711); experiment: MIC for yeast and yeast-like strains; type: cell-based; details: 48 hours, 35° C., read-out: Minimal Inhibitory Concentration (MIC)
Method: as §1, §2, §3, §4, §5

[3] = tested on: Saccharomyces cerevisiae (ATCC 7752); experiment: MIC for yeast and yeast-like strains; type: cell-based; details: ATCC7752, 48 hours, 35° C., read-out: Minimal Inhibitory Concentration (MIC)
Method: as §1, §2, §3, §4, §5

[4] = tested on: Torulopsis candida (D.S.); experiment: MIC for yeast and yeast-like strains; type: cell-based; details: Suzukiozyma candida; 48 hours, 35° C.; read-out: Minimal Inhibitory Concentration (MIC)
Method: as §1, §2, §3, §4, §5

Candida albicans (PG) = experiment: MIC and MFC for yeast and yeast-like strains; type: cell-based; details: 48 hours, 35° C., read-out: Minimal Inhibitory Concentration (MIC)
Method: as §1, §2
(§6) This medium was buffered with 0.165 M 2-(N-morpholino) propane sulfonic acid (MOPS), a non-chelating buffer.
(§7) Antimicrob. Agents Cheroother. Aug. 34.8:1542-1545).
as §4, §5
(§8) The minimal fungicidal concentration was evaluated by spot-transferring onto Petri dishes, containing Sabouraud agar, 0.01-ml volumes of all the samples showing no visible fungal growth.

[5] = tested on: Candida albicans (ATCC 2091); experiment: MIC for yeast and yeast-like strains; type: cell-based; details: ATCC2091, 48 hours, 35° C., read-out: Minimal Inhibitory Concentration (MIC)
Method: as §1, §2, §6, §7, §4, §5

Candida albicans (ISS 1) = experiment: MIC for yeast and yeast-like strains; type: cell-based; details: 48 hours, 35° C., read-out: Minimal Inhibitory Concentration (MIC)
Method: as §1, §2, §6, §7, §4, §5

Candida glabrata (ISS 1) = experiment: MIC for yeast and yeast-like strains; type: cell-based; details: Nakaseomyces glabratus; 48 hours, 35° C.; read-out: Minimal Inhibitory Concentration (MIC)
Method: as §1, §2, §6, §7, §4, §5

[6] = tested on: Candida guilliermondii (ISS 1); experiment: MIC for yeast and yeast-like strains; type: cell-based; details: Meyerozyma guilliermondii; 48 hours, 35° C.; read-out: Minimal Inhibitory Concentration (MIC)
Method: as §1, §2, §6, §7, §4, §5

[7] = tested on: Candida parapsilosis (ISS 1); experiment: MIC for yeast and yeast-like strains; type: cell-based; details: Lodderomyces parapsilosis; 48 hours, 35° C.; read-out: Minimal Inhibitory Concentration (MIC)
Method: as §1, §2, §6, §7, §4, §5

[8] = tested on: Candida pseudotropicalis (EC 1); experiment: MIC for yeast and yeast-like strains; type: cell-based; details: Kluyveromyces marxianus; 48 hours, 35° C.; read-out: Minimal Inhibitory Concentration (MIC)
Method: as §1, §2, §6, §7, §4, §5

[9] = tested on: Candida tropicalis (ISS 1); experiment: MIC for yeast and yeast-like strains; type: cell-based; details: 48 hours, 35° C., read-out: Minimal Inhibitory Concentration (MIC)
Method: as §1, §2, §6, §7, §4, §5

[10] = tested on: Cryptococcus neoformans (ISS 1); experiment: MIC for yeast and yeast-like strains; type: cell-based; details: 48 hours, 35° C., read-out: Minimal Inhibitory Concentration (MIC)
Method: as §1, §2, §6, §7, §4, §5

yeast-like fungi = experiment: MIC / MFC for yeast-like fungi, all strains; type: cell-based, Candida, Cryptococcus, Saccharomyces, Torulopsis; details: versus susceptible strains; read-out: Mean MIC values
Method: as §1, §2, §3, §4, §5, §8

[11] = tested on: Aspergillus fumigatus (1/A); experiment: MIC for filamentous fungi; type: cell-based; details: read-out: Minimal Inhibitory Concentration (MIC)
Source text: (§9) The following strains were used (the number of strains is in brackets): Aspergillus (5); Fusarium (1); Mucor (1); Penicillium (1).
(§10) The tested substances were: ST 712, ST 722, ST 982, ST 983, ST 1000, ST 1001, ST 1032, ST 1033, ST 1034, ST 1036, ST 1037, ST 1038, ST 1050, ST 1051, ST 1052, ST 1053. The assay medium was the same as the one used in the previous study. The conidia from 72-hour cultures in Sabouraud agar, collected by washing with Sabouraud medium and Tween 80 (one drop of Tween per 10 ml of medium), were utilized as inoculum (5.0×10^4 CFU/ml).
(§11) The assay was performed using the same procedure as described for yeast-like fungi.
(§12) Also the evaluation of MIC and MFC was as reported previously.

[12] = tested on: Aspergillus fumigatus (2/A); experiment: MIC for filamentous fungi; type: cell-based; details: read-out: Minimal Inhibitory Concentration (MIC)
Source text: as §9, §10, §11, §12

[13] = tested on: Aspergillus fumigatus (ATCC 28212); experiment: MIC for filamentous fungi; type: cell-based; details: ATCC28212, read-out: Minimal Inhibitory Concentration (MIC)
Source text: as §9, §10, §11, §12

[14] = tested on: Aspergillus fumigatus (C/1); experiment: MIC for filamentous fungi; type: cell-based; details: read-out: Minimal Inhibitory Concentration (MIC)
Source text: as §9, §10, §11, §12

[15] = tested on: Aspergillus niger (ATCC 16404); experiment: MIC for filamentous fungi; type: cell-based; details: ATCC16404, read-out: Minimal Inhibitory Concentration (MIC)
Source text: as §9, §10, §11, §12

Fusarium sp. (ISS 1) = experiment: MIC for filamentous fungi; type: cell-based; details: read-out: Minimal Inhibitory Concentration (MIC)
Source text: as §9, §10, §11, §12

Mucor mucedo (ATCC 7941) = experiment: MIC for filamentous fungi; type: cell-based; details: ATCC7941, read-out: Minimal Inhibitory Concentration (MIC)
Source text: as §9, §10, §11, §12

Penicillium sp. (1302) = experiment: MIC for filamentous fungi; type: cell-based; details: read-out: Minimal Inhibitory Concentration (MIC)
Source text: as §9, §10, §11, §12

filamentous fungi = experiment: MIC / MFC for filamentous fungi, all strains; type: cell-based, Aspergillus, Fusarium, Mucor, Penicillium; details: versus susceptible strains; read-out: Mean MIC values
Source text: as §9, §10, §11, §12

[16] = tested on: Epidermophyton floccosum (IHEM 3495); experiment: MIC for dermatophytic fungi; type: cell-based; details: 35° C., 96 hours, read-out: Minimal Inhibitory Concentration (MIC)
Method: (§13) The following strains were used: Trichophyton menthagrophytes ATCC 9533, Trichophyton rubrum IHEM 4274, Microsporum canis IHEM 3522, Epydermophyton floccosum IHEM 3495. The tested substances were: ST 722, ST 1033, ST 1037, ST 1050, ST 1051, ST 1052,. ST 1053.
(§14) The assay was performed following the same procedure described for the yeasts, by using 7-day fungi cultures grown at 30° C. in Potato Dextrose agar, and harvested with Sabouraud broth and Tween 80 (0.5%).
(§15) After washing with Yeast Nitrogen Base, supplemented with asparagine and glucose (as carbon source), the fungal suspension was fragmented using a tissue grinder until the largest clumps or aggregates were undetectable within the grinder. This fungal suspension was then appropriately diluted in YNB to yield a concentration of 2.0×10^5 infective particles/ml (small mycelium fragments, micro-and macroaleuriospores).
(§16) Volumes of 100 μl both of the fungal suspensions and substance solutions, two-fold serially diluted in assay medium, were distributed into each well of a microtiter plate (96 wells, round bottom), which was incubated at 35° C. for 96 hours.

[17] = tested on: Microsporum canis (IHEM 3522); experiment: MIC for dermatophytic fungi; type: cell-based; details: 35° C., 96 hours, read-out: Minimal Inhibitory Concentration (MIC)
Method: as §13, §14, §15, §16

[18] = tested on: Trichophyton menthagrophites (ATCC 9533); experiment: MIC for dermatophytic fungi; type: cell-based; details: ATCC9533, 35° C., 96 hours, read-out: Minimal Inhibitory Concentration (MIC)
Method: as §13, §14, §15, §16

[19] = tested on: Trichophyton rubrum (IHEM 4274); experiment: MIC for dermatophytic fungi; type: cell-based; details: 35° C., 96 hours, read-out: Minimal Inhibitory Concentration (MIC)
Method: as §13, §14, §15, §16

dermatophytic fungi = experiment: MIC / MFC for dermatophytic fungi, all strains; type: cell-based, Trichophyton, Microsporum, Epidermophyton; details: versus susceptible strains
Method: as §13, §14, §15, §16

Row | SMILES | MIC (Candida albicans (562)) [µg/mL] | MIC (Candida albicans (A 54)) [µg/mL] | MIC (Candida albicans (Ca 2)) [µg/mL] | MIC (Candida krusei (ISS 1)) [µg/mL] | MIC [1] [µg/mL] | MIC [2] [µg/mL] | MIC [3] [µg/mL] | MIC [4] [µg/mL] | MIC (Candida albicans (PG)) [µg/mL] | MIC [5] [µg/mL] | MIC (Candida albicans (ISS 1)) [µg/mL] | MIC (Candida glabrata (ISS 1)) [µg/mL] | MIC [6] [µg/mL] | MIC [7] [µg/mL] | MIC [8] [µg/mL] | MIC [9] [µg/mL] | MIC [10] [µg/mL] | MIC (yeast-like fungi) [µg/mL] | MIC [11] [µg/mL] | MIC [12] [µg/mL] | other results
1 | CCCCCCCCCCCOC(=O)C[C@H](C[N+](C)(C)C)OC(=O)CCCCCC [ST 1036] | 1.56 | 1.56 | 1.56 | 1.56 | 3.12 | 1.56 | 3.12 | 3.12 | 3.12 | 1.56 | 1.56 | 3.12 | 6.25 | 6.25 | 6.25 | 3.12 | 3.12 | 2.84 | 6.25 | 6.25 | MIC [13]: 3.12 µg/mL; MIC [14]: 3.12 µg/mL; MIC [15]: 3.12 µg/mL; MIC (Fusarium sp. (ISS 1)): 3.12 µg/mL; MIC (Mucor mucedo (ATCC 7941)): 6.25 µg/mL; MIC (Penicillium sp. (1302)): 3.12 µg/mL; MIC (filamentous fungi): 4.29 µg/mL
2 | CCCCCCCCCCCCOC(=O)C[C@H](C[N+](C)(C)C)OC(=O)CC(C)C [ST 1037] | 1.56 | 1.56 | 1.56 | 1.56 | 3.12 | 0.78 | 3.12 | 3.12 | 3.12 | 1.56 | 3.12 | 3.12 | 6.25 | 3.12 | 6.25 | 3.12 | 1.56 | 2.8 | 6.25 | 6.25 | MIC [13]: 6.25 µg/mL; MIC [14]: 6.25 µg/mL; MIC [15]: 6.25 µg/mL; MIC (Fusarium sp. (ISS 1)): 3.12 µg/mL; MIC (Mucor mucedo (ATCC 7941)): 12.5 µg/mL; MIC (Penicillium sp. (1302)): 6.25 µg/mL; MIC (filamentous fungi): 6.64 µg/mL; MIC [16]: 25 µg/mL; MIC [17]: 12.5 µg/mL; MIC [18]: 12.5 µg/mL; MIC [19]: 6.25 µg/mL; MIC (dermatophytic fungi): 14.1 µg/mL
3 | CCCCCCCCCCCCOC(=O)C[C@H](C[N+](C)(C)C)OC(=O)C(C)C [ST 1038] | 3.12 | 3.12 | 1.56 | 3.12 | 3.12 | 1.56 | 6.25 | 6.25 | 6.25 | 3.12 | 6.25 | 6.25 | 6.25 | 6.25 | 6.25 | 3.12 | 3.12 | 4.4 | 12.5 | 12.5 | MIC [13]: 12.5 µg/mL; MIC [14]: 6.25 µg/mL; MIC [15]: 12.5 µg/mL; MIC (Fusarium sp. (ISS 1)): 6.25 µg/mL; MIC (Mucor mucedo (ATCC 7941)): 25 µg/mL; MIC (Penicillium sp. (1302)): 12.5 µg/mL; MIC (filamentous fungi): 12.5 µg/mL
